# Test results reported in US9062124B2, “GIP-based mixed agonists for treatment of metabolic disorders and obesity” (priority 2008, dated 2015).
# Where a SMILES comes first, the peptide text is derived from it. Bridges are numbered along the chain shown (N, C = ends). Where no end group is shown, it is not given here. [ ]: non-standard residue; d: D form. PEG 40 kDa = PEG (40 kDa) covalently attached to Cys; PhLac = O=C(O)[C@@H](O)Cc1ccccc1; Aib = CC(C)(N)C(=O)O
# Legend:
# Assay type in all cases: cell-based
# [1] = target: T1, GLP-1 receptor (Homo sapiens, UniProt P43220); test: cAMP synthesis functional assay (firefly luciferase reporter in HEK293 cells), GLP-1 receptor; settings: Table 1; for EC50: GLP-1 Receptor EC50, nM; for GLP-1 Receptor relative activity: relative to the native hormone of the indicated receptor
# T1 construct: expressed in transfected cells; host or cells: HEK293
# T1 sequence (P43220 24-463, species assumed): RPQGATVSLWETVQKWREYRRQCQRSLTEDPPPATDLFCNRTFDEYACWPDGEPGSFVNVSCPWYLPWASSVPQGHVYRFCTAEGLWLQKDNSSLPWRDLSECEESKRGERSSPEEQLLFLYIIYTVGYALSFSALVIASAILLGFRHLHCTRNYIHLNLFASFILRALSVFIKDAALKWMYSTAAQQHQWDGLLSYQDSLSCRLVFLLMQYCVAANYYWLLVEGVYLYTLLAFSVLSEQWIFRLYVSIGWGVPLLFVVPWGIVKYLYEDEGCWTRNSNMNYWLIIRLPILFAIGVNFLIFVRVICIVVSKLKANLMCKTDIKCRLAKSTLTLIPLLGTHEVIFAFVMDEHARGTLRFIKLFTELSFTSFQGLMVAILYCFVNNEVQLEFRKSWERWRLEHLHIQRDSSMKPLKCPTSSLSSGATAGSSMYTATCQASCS
# [2] = target: T2, GIP receptor (Homo sapiens, UniProt P48546); test: cAMP synthesis functional assay (firefly luciferase reporter in HEK293 cells), GIP receptor; settings: Table 1; for GIP Receptor relative activity: relative to the native hormone of the indicated receptor
# T2 construct: expressed in transfected cells; host or cells: HEK293
# T2 sequence (P48546 22-466): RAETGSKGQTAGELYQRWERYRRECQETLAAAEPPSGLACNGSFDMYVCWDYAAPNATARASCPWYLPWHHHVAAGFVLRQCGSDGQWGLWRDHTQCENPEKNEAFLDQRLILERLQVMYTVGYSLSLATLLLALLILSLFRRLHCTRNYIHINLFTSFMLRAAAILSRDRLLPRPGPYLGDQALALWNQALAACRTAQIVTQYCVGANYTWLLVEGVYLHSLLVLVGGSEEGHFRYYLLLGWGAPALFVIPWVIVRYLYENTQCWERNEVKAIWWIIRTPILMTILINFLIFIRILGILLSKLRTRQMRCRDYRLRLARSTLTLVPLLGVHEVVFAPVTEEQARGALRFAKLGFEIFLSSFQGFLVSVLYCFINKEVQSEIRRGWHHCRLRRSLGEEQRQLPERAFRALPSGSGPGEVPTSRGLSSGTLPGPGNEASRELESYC
# [3] = target: T3, glucagon receptor (Homo sapiens, UniProt P47871); test: cAMP synthesis functional assay (firefly luciferase reporter in HEK293 cells), glucagon receptor; settings: Table 1; for EC50: Glucagon Receptor EC50, nM; for Glucagon Receptor relative activity: relative to the native hormone of the indicated receptor
# T3 construct: expressed in transfected cells; host or cells: HEK293
# T3 sequence (P47871 26-477): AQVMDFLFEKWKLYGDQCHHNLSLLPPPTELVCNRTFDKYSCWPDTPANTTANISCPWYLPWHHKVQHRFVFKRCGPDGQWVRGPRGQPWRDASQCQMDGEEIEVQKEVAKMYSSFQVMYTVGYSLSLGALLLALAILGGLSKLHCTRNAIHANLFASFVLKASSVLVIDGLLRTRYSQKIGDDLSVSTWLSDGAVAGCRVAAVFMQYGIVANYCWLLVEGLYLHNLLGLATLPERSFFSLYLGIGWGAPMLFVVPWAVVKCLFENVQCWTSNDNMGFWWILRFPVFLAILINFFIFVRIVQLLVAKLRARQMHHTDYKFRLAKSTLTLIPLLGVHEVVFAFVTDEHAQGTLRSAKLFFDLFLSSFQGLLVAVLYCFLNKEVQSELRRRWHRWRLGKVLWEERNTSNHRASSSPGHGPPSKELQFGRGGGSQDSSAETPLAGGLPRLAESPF
Compound,GLP-1 Receptor relative activity [1],Glucagon Receptor relative activity [3],EC50 [1],"EC50 ([2]; GIP Receptor EC50, nM)",GIP Receptor relative activity [2],EC50 [3]
CC[C@H](C)[C@H](NC(=O)[C@H](CO)NC(=O)[C@H](Cc1ccc(O)cc1)NC(=O)[C@H](CC(=O)O)NC(=O)[C@H](CO)NC(=O)[C@@H](NC(=O)[C@H](Cc1ccccc1)NC(=O)[C@@H](NC(=O)CNC(=O)[C@H](CCC(N)=O)NC(=O)C(C)(C)NC(=O)[C@@H](N)Cc1ccc(O)cc1)[C@@H](C)O)C(C)C)C(=O)N[C@@H](Cc1ccc(O)cc1)C(=O)N[C@@H](CC(C)C)C(=O)N[C@@H](CC(=O)O)C(=O)N[C@H]1CCC(=O)NCCCC[C@@H](C(=O)N[C@@H](CCC(=O)O)C(=O)N[C@@H](Cc2ccccc2)C(=O)N[C@H](C(=O)N[C@@H](CC(N)=O)C(=O)N[C@@H](Cc2c[nH]c3ccccc23)C(=O)N[C@@H](CC(C)C)C(=O)N[C@@H](CC(C)C)C(=O)N[C@@H](C)C(=O)NCC(=O)NCC(=O)N2CCC[C@H]2C(=O)N[C@@H](CO)C(=O)N[C@@H](CO)C(=O)NCC(=O)N[C@@H](C)C(=O)N2CCC[C@H]2C(=O)N2CCC[C@H]2C(=O)N2CCC[C@H]2C(=O)N[C@@H](CO)C(=O)N[C@@H](CS)C(N)=O)C(C)C)NC(=O)[C@H](C)NC(=O)[C@H](C)NC(=O)[C@H](CCC(N)=O)NC1=O [mt-199] (H-Y[Aib]QGTFVSDYSIYLDEQAAKEFVNWLLAGGPSSGAPPPSC-NH2; lactam 16-20; N-terminus assumed),1.04%,31.31%,2.8 nM,0.526 nM,5.51%,0.214 nM
Y[Aib]EGTFISDYSIAMDKIHQQDFVNWLLAQKGKKNWLKHNITQ-NH2 [mt-100],0.01%,0.01%,,,306.25%,
CC[C@H](C)[C@H](NC(=O)[C@H](Cc1ccccc1)NC(=O)[C@@H](NC(=O)CNC(=O)[C@H](CCC(N)=O)NC(=O)[C@H](C)NC(=O)[C@@H](N)Cc1ccc(O)cc1)[C@@H](C)O)C(=O)N[C@@H](CO)C(=O)N[C@@H](CC(=O)O)C(=O)N[C@@H](Cc1ccc(O)cc1)C(=O)N[C@@H](CO)C(=O)N[C@@H](CCCCN)C(=O)N[C@@H](Cc1ccc(O)cc1)C(=O)N[C@@H](CC(C)C)C(=O)N[C@@H](CC(=O)O)C(=O)N[C@H]1CCC(=O)NCCCC[C@@H](C(=O)N[C@@H](CCC(=O)O)C(=O)N[C@@H](Cc2ccccc2)C(=O)N[C@H](C(=O)N[C@@H](CC(N)=O)C(=O)N[C@@H](Cc2c[nH]c3ccccc23)C(=O)N[C@@H](CC(C)C)C(=O)N[C@@H](CC(C)C)C(=O)N[C@@H](C)C(=O)NCC(=O)NCC(=O)N2CCC[C@H]2C(=O)N[C@@H](CO)C(=O)N[C@@H](CO)C(=O)NCC(=O)N[C@@H](C)C(=O)N2CCC[C@H]2C(=O)N2CCC[C@H]2C(=O)N2CCC[C@H]2C(=O)N[C@@H](CO)C(N)=O)C(C)C)NC(=O)[C@H](C)NC(=O)[C@H](C)NC(=O)[C@H](CCC(N)=O)NC1=O [mt-146] (H-YAQGTFISDYSKYLDEQAAKEFVNWLLAGGPSSGAPPPS-NH2; lactam 16-20; N-terminus assumed),0.25%,480.00%,,,13.30%,
CC(C)C[C@H](NC(=O)[C@H](CC(C)C)NC(=O)[C@H](Cc1c[nH]c2ccccc12)NC(=O)[C@H](CC(N)=O)NC(=O)[C@@H](NC(=O)[C@H](Cc1ccccc1)NC(=O)[C@H](CCC(=O)O)NC(=O)[C@H](CCCCN)NC(=O)[C@H](C)NC(=O)[C@H](C)NC(=O)[C@H](CCC(N)=O)NC(=O)[C@@H]1CCC(=O)NCCCC[C@H](NC(=O)[C@H](CO)NC(=O)[C@H](Cc2ccc(O)cc2)NC(=O)[C@H](CC(=O)O)NC(=O)[C@H](CO)NC(=O)[C@@H](NC(=O)[C@H](Cc2ccccc2)NC(=O)[C@@H](NC(=O)CNC(=O)[C@H](CCC(N)=O)NC(=O)[C@H](CO)NC(=O)[C@@H](N)Cc2ccc(O)cc2)[C@@H](C)O)[C@@H](C)O)C(=O)N[C@@H](Cc2ccc(O)cc2)C(=O)N[C@@H](CC(C)C)C(=O)N[C@@H](CC(=O)O)C(=O)N1)C(C)C)C(=O)N[C@@H](C)C(=O)NCC(=O)NCC(=O)N1CCC[C@H]1C(=O)N[C@@H](CO)C(=O)N[C@@H](CO)C(=O)NCC(=O)N[C@@H](C)C(=O)N1CCC[C@H]1C(=O)N1CCC[C@H]1C(=O)N1CCC[C@H]1C(=O)N[C@@H](CO)C(N)=O [mt-155] (H-YSQGTFTSDYSKYLDEQAAKEFVNWLLAGGPSSGAPPPS-NH2; lactam 12-16; N-terminus assumed),98.99%,10.93%,,,7.02%,1.28 nM
YAPGTFISDYSIAMDKIHQQDFVNWLLAQKGKKNWLKHNITQ-NH2 [mt-101],,,,,0.06%,
CC[C@H](C)[C@H](NC(=O)[C@H](CO)NC(=O)[C@H](Cc1ccc(O)cc1)NC(=O)[C@H](CC(=O)O)NC(=O)[C@H](CO)NC(=O)[C@@H](NC(=O)[C@H](Cc1ccccc1)NC(=O)[C@@H](NC(=O)CNC(=O)[C@H](CCC(=O)O)NC(=O)[C@H](C)NC(=O)[C@@H](N)Cc1ccc(O)cc1)[C@@H](C)O)[C@@H](C)O)C(=O)N[C@@H](Cc1ccc(O)cc1)C(=O)N[C@@H](CCSC)C(=O)N[C@@H](CC(=O)O)C(=O)N[C@H]1CCC(=O)NCCCC[C@@H](C(=O)N[C@@H](CCC(=O)O)C(=O)N[C@@H](Cc2ccccc2)C(=O)N[C@H](C(=O)N[C@@H](CC(N)=O)C(=O)N[C@@H](Cc2c[nH]c3ccccc23)C(=O)N[C@@H](CC(C)C)C(=O)N[C@@H](CC(C)C)C(=O)N[C@@H](C)C(=O)NCC(=O)NCC(=O)N2CCC[C@H]2C(=O)N[C@@H](CO)C(=O)N[C@@H](CO)C(=O)NCC(=O)N[C@@H](C)C(=O)N2CCC[C@H]2C(=O)N2CCC[C@H]2C(=O)N2CCC[C@H]2C(=O)N[C@@H](CO)C(N)=O)C(C)C)NC(=O)[C@H](C)NC(=O)[C@H](C)NC(=O)[C@H](CCC(N)=O)NC1=O [mt-142] (H-YAEGTFTSDYSIYMDEQAAKEFVNWLLAGGPSSGAPPPS-NH2; lactam 16-20; N-terminus assumed),163.41%,,,,36.36%,
"mt-208: glucagon analog peptide, C-terminal amide (Y[Aib]EGTFTSDYSIYLDEQAAKEFVNWLLAGKGKKNWLKHNITQC(PEG 40 kDa)-NH2; lactam 16-20)",11.83%,,,,4.79%,
YAPGTFISDYSIAMDKIHQQDFVCWLLAQKGKKNWLKHNITQ-NH2 [mt-104],,,,,0.22%,

# More lines, main results first:
GLP-1 Receptor relative activity [1],Glucagon Receptor relative activity [3],Compound,EC50 [1],"EC50 ([2]; GIP Receptor EC50, nM)",GIP Receptor relative activity [2],EC50 [3]
50.00%,13.33%,CC[C@H](C)[C@H](NC(=O)[C@H](Cc1ccccc1)NC(=O)[C@H](CCC(=O)O)NC(=O)[C@@H]1CCCCNC(=O)CC[C@H](NC(=O)[C@H](CC(=O)O)NC(=O)[C@H](CC(C)C)NC(=O)[C@H](Cc2ccc(O)cc2)NC(=O)[C@@H](NC(=O)[C@H](CO)NC(=O)[C@H](Cc2ccc(O)cc2)NC(=O)[C@H](CC(=O)O)NC(=O)[C@H](CO)NC(=O)[C@@H](NC(=O)[C@H](Cc2ccccc2)NC(=O)[C@@H](NC(=O)CNC(=O)[C@H](CCC(N)=O)NC(=O)[C@H](CO)NC(=O)[C@@H](N)Cc2c[nH]cn2)[C@@H](C)O)[C@@H](C)O)[C@@H](C)CC)C(=O)N[C@@H]([C@@H](C)CC)C(=O)N[C@@H](Cc2c[nH]cn2)C(=O)N[C@@H](CCC(N)=O)C(=O)N1)C(=O)N[C@@H](CS)C(=O)N[C@@H](Cc1c[nH]c2ccccc12)C(=O)N[C@@H](CC(C)C)C(=O)N[C@@H](CC(C)C)C(=O)N[C@@H](C)C(=O)N[C@@H](CCC(N)=O)C(N)=O [mt-84] (H-HSQGTFTSDYSIYLDEIHQKEFICWLLAQ-NH2; lactam 16-20; N-terminus assumed),0.16 nM,,,0.45 nM
0.04%,0.07%,CC[C@H](C)[C@H](NC(=O)[C@H](CO)NC(=O)[C@H](Cc1ccc(O)cc1)NC(=O)[C@H](CC(=O)O)NC(=O)[C@H](CO)NC(=O)[C@@H](NC(=O)[C@@H](O)Cc1ccccc1)[C@@H](C)CC)C(=O)N[C@@H](C)C(=O)N[C@@H](CCSC)C(=O)N[C@@H](CC(=O)O)C(=O)N[C@H]1CCC(=O)NCCCC[C@@H](C(=O)N[C@@H](CC(=O)O)C(=O)N[C@@H](Cc2ccccc2)C(=O)N[C@H](C(=O)N[C@@H](CC(N)=O)C(=O)N[C@@H](Cc2c[nH]c3ccccc23)C(=O)N[C@@H](CC(C)C)C(=O)N[C@@H](CC(C)C)C(=O)N[C@@H](C)C(=O)N[C@@H](CCC(N)=O)C(N)=O)C(C)C)NC(=O)[C@H](CCC(N)=O)NC(=O)[C@H](Cc2c[nH]cn2)NC(=O)[C@H]([C@@H](C)CC)NC1=O [mt-113] (H-[PhLac]ISDYSIAMDEIHQKDFVNWLLAQ-NH2; lactam 11-15),,,,
12.90%,6.03%,CC[C@H](C)[C@H](NC(=O)[C@H](Cc1ccccc1)NC(=O)[C@H](CCC(=O)O)NC(=O)[C@H](CCCCN)NC(=O)[C@H](CCC(N)=O)NC(=O)[C@H](Cc1c[nH]cn1)NC(=O)[C@@H](NC(=O)[C@@H]1CCC(=O)NCCCC[C@H](NC(=O)[C@H](CO)NC(=O)[C@H](Cc2ccc(O)cc2)NC(=O)[C@H](CC(=O)O)NC(=O)[C@H](CO)NC(=O)[C@@H](NC(=O)[C@H](Cc2ccccc2)NC(=O)[C@@H](NC(=O)CNC(=O)[C@H](CCC(N)=O)NC(=O)[C@H](CO)NC(=O)[C@@H](N)Cc2c[nH]cn2)[C@@H](C)O)[C@@H](C)O)C(=O)N[C@@H](Cc2ccc(O)cc2)C(=O)N[C@@H](CC(C)C)C(=O)N[C@@H](CC(=O)O)C(=O)N1)[C@@H](C)CC)C(=O)N[C@@H](C)C(=O)N[C@@H](Cc1c[nH]c2ccccc12)C(=O)N[C@@H](CC(C)C)C(=O)N[C@@H](CCSC)C(=O)N[C@@H](CC(N)=O)C(=O)N[C@H](C(N)=O)[C@@H](C)O [mt-63],,,,3.15 nM
